In series [1] the test system is Leptosphaeria nodorum (LEPTNO). Description: In vitro fungitoxicity of hydrazones with and without copper towards Leptosphaeria nodorum (Example 26). To be noted: 72 h at 25° C.; for inhibition of growth at 0.05 µg/mL: Parastagonospora nodorum, 72 h, read-out: LEPTNO % Inhn. Minus Copper Observed. The class given is cell-based.
Series [2] has as its system Phytophthora infestans. The class given is in vivo, Phytophthora infestans on tomato. The conditions noted are these: applied 24 h before inoculation, assessed 7 days after inoculation.
Where [3] appears, read: copper-minus medium, test compound Concn. 0.05 μg/mL.
Where [4] appears, read: copper-plus medium (CuCl2 10 μM), test compound Concn. 0.05 μg/mL.
Where [5] appears, read: hydrazone 50 ppm with 50 μM CuCl2.2H2O, tomato late blight.
Where [6] appears, read: compound 0.05 μg/mL, copper-minus medium.
The mark [7] stands for this setting: compound 0.05 μg/mL, copper-plus medium (CuCl2.2H2O).
Where [8] appears, read: hydrazone 50 ppm + 50 μM CuCl2.2H2O, tomato.

Read-outs that look alike come from different tables or passages of the source.

The molecule `O=C(N/N=C/c1cc(Cl)cc(C(F)(F)F)c1O)c1ccccc1C(F)(F)F` [Example 385] gave a melting point of 203 to 204 °C. Further, in series [1] (setting [3]), the inhibition of growth at 0.05 µg/mL came to 5.4%. The “LEPTNO % Inhn. Plus Copper Observed” value in series [1] (setting [4]) is 94.6%. Moreover, the “TLB % Control” value in series [2] (setting [5]) was 100.0%.

For `COc1ccc(/C(C)=N/NC(=O)c2ccc(Br)cc2)c(O)c1` [Example 483], the melting point fell in the range of 239 to 241 °C. Besides, the inhibition of growth at 0.05 µg/mL in series [1] (setting [3]) is 0%. The “LEPTNO % Inhn. Plus Copper Observed” value in series [1] (setting [4]) was found to be 97.9%. In series [2] (setting [5]), the “TLB % Control” value was found to be 63.0%.

The molecule `Cc1ccc(C(=O)N/N=C/c2cc(Cl)cc(C(F)(F)F)c2O)c(O)c1` [Example 386] gave a melting point of 252 to 254 °C. The inhibition of growth at 0.05 µg/mL in series [1] (setting [3]) is 41.1%. Further, the “LEPTNO % Inhn. Plus Copper Observed” value in series [1] (setting [4]) was 98.4%. Also, the “TLB % Control” value in series [2] (setting [5]) is recorded as 100.0%.

Molecule `O=C(N/N=C/c1c(C(F)(F)F)ccc(Cl)c1O)c1cccc(F)c1` [Example 449] had a melting point of 227 to 229 °C. Also, the inhibition of growth at 0.05 µg/mL in series [1] (setting [3]) amounted to 7.2%. For the same molecule, in series [1] (setting [4]), the “LEPTNO % Inhn. Plus Copper Observed” value was found to be 98.5%. Also, the “TLB % Control” value in series [2] (setting [5]) came out at 92.0%.

With `Cc1cccc(/C=N/NC(=O)c2ccccc2)c1O` [Example 232], the melting point was in the range of 186 to 188 °C. In series [1] (setting [6]), the inhibition of growth at 0.05 µg/mL came out at 2.3%. Moreover, in series [1] (setting [7]), the “LEPTNO % Inhn. Plus Copper Observed” value is reported as 97.5%. The “TLB % Control” value in series [2] (setting [8]) was 57.6%.

`C/C(=N\NC(=O)c1ccc(C)cc1)c1cccc(Cl)c1O` [Example 495] showed a melting point of 195 to 200 °C. Also, in series [1] (setting [3]), the inhibition of growth at 0.05 µg/mL stood at 0%. In series [1] (setting [4]), the “LEPTNO % Inhn. Plus Copper Observed” value is given as 97.3%. The “TLB % Control” value in series [2] (setting [5]) came out at 91.0%.

Consider `Cc1cc(C)cc(C(=O)N/N=C/c2cc(Br)ccc2O)c1` [Example 107], for which the melting point lay within 191 to 195 °C. In addition, in series [1] (setting [6]), the inhibition of growth at 0.05 µg/mL was determined as 0%. For the same molecule, the “LEPTNO % Inhn. Plus Copper Observed” value in series [1] (setting [7]) came to 97.2%. Further, in series [2] (setting [8]), the “TLB % Control” value stood at 74.6%.

In turn, `Cc1ccc(C(=O)N/N=C/c2ccc(Cl)c(Cl)c2O)cc1` [Example 355] came in with a melting point of 254 to 256 °C. The inhibition of growth at 0.05 µg/mL in series [1] (setting [3]) amounted to 19.6%. Moreover, the “LEPTNO % Inhn. Plus Copper Observed” value in series [1] (setting [4]) turned out to be 89.8%. In addition, in series [2] (setting [5]), the “TLB % Control” value was found to be 87.0%.

Take `O=C(N/N=C/c1cc(C(F)(F)F)cc(C(F)(F)F)c1O)c1ccccc1O` [Example 340]: the melting point lay within 231 to 235 °C. The inhibition of growth at 0.05 µg/mL in series [1] (setting [3]) stood at 18%. For the same molecule, in series [1] (setting [4]), the “LEPTNO % Inhn. Plus Copper Observed” value was found to be 96.2%. Besides, the “TLB % Control” value in series [2] (setting [5]) came to 95.0%.

For the molecule `C/C(=N\NC(=O)c1ccccc1O)c1cc(Br)cc(Br)c1O` [Example 550], the melting point lay within 305 to 306 °C. Further, the inhibition of growth at 0.05 µg/mL in series [1] (setting [3]) came to 4.6%. Moreover, the “LEPTNO % Inhn. Plus Copper Observed” value in series [1] (setting [4]) is listed as 97.2%. The “TLB % Control” value in series [2] (setting [5]) worked out at 63.0%.

`Cc1ccc(C(=O)N/N=C/c2cc(Cl)cc(C(F)(F)F)c2O)cc1` [Example 377] came in with a melting point of 276 to 278 °C. Besides, the inhibition of growth at 0.05 µg/mL in series [1] (setting [3]) was found to be 29.9%. Also, the “LEPTNO % Inhn. Plus Copper Observed” value in series [1] (setting [4]) was determined as 97.6%. Also, the “TLB % Control” value in series [2] (setting [5]) is 100.0%.

In turn, `O=C(N/N=C/c1ccc(Cl)c(Cl)c1O)c1ccccc1C(F)(F)F` [Example 363] showed a melting point of 209 to 213 °C. For the same molecule, the inhibition of growth at 0.05 µg/mL in series [1] (setting [3]) was 4.3%. Besides, in series [1] (setting [4]), the “LEPTNO % Inhn. Plus Copper Observed” value worked out at 94.7%. The “TLB % Control” value in series [2] (setting [5]) worked out at 92.0%.

`CC(C)(C)N(/N=C/c1ccccc1O)C(=O)c1ccccc1` [Example 217] came in with a melting point of 91 to 104 °C. In addition, in series [1] (setting [6]), the inhibition of growth at 0.05 µg/mL amounted to 0%. For the same molecule, the “LEPTNO % Inhn. Plus Copper Observed” value in series [1] (setting [7]) is on record as 92.7%. Moreover, in series [2] (setting [8]), the “TLB % Control” value is recorded as 0.0%.

The molecule `C/C(=N\NC(=O)c1ccccc1)c1cc(Br)cc(Br)c1O` [Example 539] displayed a melting point of 242 to 245 °C. The inhibition of growth at 0.05 µg/mL in series [1] (setting [3]) came to 1.6%. Moreover, the “LEPTNO % Inhn. Plus Copper Observed” value in series [1] (setting [4]) is 98.0%. In series [2] (setting [5]), the “TLB % Control” value worked out at 100.0%.

`COc1cccc(/C(C)=N/NC(=O)c2ccccc2Br)c1O` [Example 467] had a melting point of 245 to 247 °C. Moreover, the inhibition of growth at 0.05 µg/mL in series [1] (setting [3]) worked out at 0%. The “LEPTNO % Inhn. Plus Copper Observed” value in series [1] (setting [4]) is listed as 95.7%. Moreover, in series [2] (setting [5]), the “TLB % Control” value was found to be 80.0%.

In turn, `C/C(=N\NC(=O)c1cccc(C)c1)c1cc(Cl)ccc1O` [Example 506] registered a melting point of 222 to 228 °C. Moreover, the inhibition of growth at 0.05 µg/mL in series [1] (setting [3]) amounted to 2.7%. For the same molecule, the “LEPTNO % Inhn. Plus Copper Observed” value in series [1] (setting [4]) was found to be 97.5%. Further, in series [2] (setting [5]), the “TLB % Control” value was found to be 44.0%.

With `O=C(N/N=C/c1cc(Cl)cc(Cl)c1O)c1cc(Br)ccc1Cl` [Example 98], the melting point was in the range of 191 to 192 °C. For the same molecule, the inhibition of growth at 0.05 µg/mL in series [1] (setting [6]) was determined as 16.8%. Moreover, in series [1] (setting [7]), the “LEPTNO % Inhn. Plus Copper Observed” value was 98.1%. Further, the “TLB % Control” value in series [2] (setting [8]) is given as 79.7%.

Take `Cc1cccc(C(=O)N/N=C/c2cc(C(F)(F)F)cc(C(F)(F)F)c2O)c1` [Example 332]: the melting point lay in the range of 210 to 213 °C. The inhibition of growth at 0.05 µg/mL in series [1] (setting [3]) is 2%. The “LEPTNO % Inhn. Plus Copper Observed” value in series [1] (setting [4]) was 93.9%. Further, in series [2] (setting [5]), the “TLB % Control” value came to 89.0%.

In the case of `COc1cc(O)c(/C(C)=N/NC(=O)c2ccccc2C)c(OC)c1` [Example 584], the melting point is 269 to 274 °C. In addition, the inhibition of growth at 0.05 µg/mL in series [1] (setting [3]) is 3%. Further, the “LEPTNO % Inhn. Plus Copper Observed” value in series [1] (setting [4]) is reported as 11.8%. Moreover, the “TLB % Control” value in series [2] (setting [5]) is listed as 7.6%.

`C/C(=N\NC(=O)c1ccccc1Br)c1cc(Br)cc(Br)c1O` [Example 549]: the melting point lay within 214 to 216 °C. The inhibition of growth at 0.05 µg/mL in series [1] (setting [3]) amounted to 0%. Moreover, in series [1] (setting [4]), the “LEPTNO % Inhn. Plus Copper Observed” value is given as 97.3%. Moreover, the “TLB % Control” value in series [2] (setting [5]) is listed as 94.0%.

In turn, `O=C(N/N=C/c1c(O)cc(Cl)cc1Cl)c1ccccc1` [Example 242] displayed a melting point of 273 to 274 °C. Further, in series [1] (setting [6]), the inhibition of growth at 0.05 µg/mL was 6.9%. In addition, in series [1] (setting [7]), the “LEPTNO % Inhn. Plus Copper Observed” value stood at 98.0%. In series [2] (setting [8]), the “TLB % Control” value is recorded as 78.0%.

The molecule `C/C(=N\NC(=O)c1ccc(C)cc1C)c1ccccc1O` [Example 33] registered a melting point of 188 to 190 °C. In addition, in series [1] (setting [6]), the “LEPTNO % Inhn. Minus Copper Observed” value was found to be 0.0%. Moreover, in series [1] (setting [7]), the “LEPTNO % Inhn. Plus Copper Observed” value was 93.1%. For the same molecule, the “TLB % Control” value in series [2] (setting [8]) stood at 50.9%.

`Cc1cccc(C(=O)N/N=C/c2cc(Cl)cc(Br)c2O)c1O` [Example 165] registered a melting point of 218 to 221 °C. For the same molecule, in series [1] (setting [6]), the inhibition of growth at 0.05 µg/mL worked out at 14.9%. Further, in series [1] (setting [7]), the “LEPTNO % Inhn. Plus Copper Observed” value is 98.4%. The “TLB % Control” value in series [2] (setting [8]) was 88.4%.

`C/C(=N\NC(=O)c1cc(Cl)ccc1O)c1cc(Cl)cc(Cl)c1O` [Example 490] showed a melting point of 322 to 325 °C. Moreover, the inhibition of growth at 0.05 µg/mL in series [1] (setting [3]) was found to be 31.5%. Besides, in series [1] (setting [4]), the “LEPTNO % Inhn. Plus Copper Observed” value amounted to 97.0%. Moreover, in series [2] (setting [5]), the “TLB % Control” value is recorded as 55.0%.

With `C/C(=N\NC(=O)c1ccc(C(F)(F)F)cc1)c1cc(Br)ccc1O` [Example 518], the melting point is 272 to 280 °C. Besides, in series [1] (setting [3]), the inhibition of growth at 0.05 µg/mL is 24.2%. Moreover, the “LEPTNO % Inhn. Plus Copper Observed” value in series [1] (setting [4]) is 97.4%. For the same molecule, the “TLB % Control” value in series [2] (setting [5]) was 58.0%.
